In brackets after ≈: the same amount, converted by molar mass. Like-named read-outs stand apart in the source and are kept apart here.
Legend:
[1] = test system: S. aureus topoisomerase mutants; experiment: MIC against defined topoisomerase mutants; type: cell-based; conditions: Staphylococcus aureus
E. coli = experiment: In vitro multistep selection for besifloxacin-resistant mutants; type: cell-based; conditions: for MIC: Escherichia coli
Description: (§1) Furthermore, an experiment was conducted to assess the mechanism of action of besifloxacin in S. pneumoniae, S. aureus, and E. coli via step selections for isolates with decreased susceptibility to besifloxacin, as well as by testing for altered susceptibilities of ciprofloxacin-resistant variants of all three species containing genetically defined mutations in the quinolone resistance determining regions (QRDRs) of structural genes encoding DNA gyrase and topoisomerase IV (Table 2).
(§2) Besifloxacin is a potent antibacterial agent by virtue of its efficient biochemical inhibition of type II bacterial topoisomerases at low micromolar levels. Besifloxacin was associated with a low mutant prevention concentration (MPC), especially in the two Gram-positive pathogens, S. aureus and S. pneumoniae, in which the MPCs were only four times higher than the MICs for those organisms. Correspondingly, very few drug-resistant mutants were obtained in in vitro experiments for those two species (<1 mutant per 10^10 cells).
(§3) As a consequence, strains with high-level resistance would only emerge if both targets were mutated simultaneously, an event that is not very likely in strains that lack predisposing mutations. A dual-targeting mechanism of action for besifloxacin is supported by the following experimental evidence: • In S. aureus and S. pneumoniae, single (1st step) mutants were extremely rare (<1/10^10 cells) and only few or no double (2nd step) mutants were obtained (Table 3). • Single mutations in the gyrA or in the parC gene were obtained in S. aureus as well as in S. pneumoniae. […] By comparison, all single mutations in quinolone-resistant strains of E. coli were mapped to either the gyrA or the gyrB gene consistent with the general finding that quinolones primarily target the DNA gyrase in Gram-negative bacteria. • Biochemical experiments with the purified DNA gyrase and topoisomerase IV enzymes from S. pneumoniae and E. coli were performed.

S. aureus = experiment: as above; type: cell-based; conditions: for MIC: Staphylococcus aureus
Description: as §1, §2, §3

S. pneumoniae = experiment: as above; type: cell-based; conditions: for MIC: Streptococcus pneumoniae
Description: as §1, §2, §3

[2] = Study 424: tear fluid pharmacokinetics after single topical ocular instillation in healthy volunteers; type: in vivo, human
Description: This study was conducted to evaluate the ocular PK of besifloxacin in tear fluid after a single instillation of besifloxacin ophthalmic suspension, 0.6%, in both eyes of healthy volunteers and to compare the actual besifloxacin exposure to MICs of the most prevalent pathogens associated with bacterial conjunctivitis.
Healthy volunteers received a single instillation (37 μL by pipette) of besifloxacin ophthalmic suspension, 0.6%, in the conjunctival sac of each eye. A single tear sample was collected on a Schirmer tear strip from each healthy volunteer. […] Samples were analyzed using a validated LC/MS/MS method, and the LLOQ was 2 ng/mL (equivalent to approximately 0.2 μg/g for a 10-mg tear sample).
Mean tear concentration data were obtained from the per protocol (PP) set and the full analysis (FAS) set. For the purpose of this study, the PP set included all healthy volunteers with the exclusion of apparent outlier values. The FAS set included all healthy volunteers who received besifloxacin, and from whom all sampling data were available (no exclusion of outlier values).

[3] = Nonclinical ocular tolerance, QID dosing for 28 days; type: in vivo
From the text: ERG measurements were included in the studies due to the known retinal toxicity associated with some fluoroquinolones.

[4] = 2nd step, NMO = No mutants obtained
[5] = both sexes, human, tear fluid, topical, 37 μL of 0.6% suspension per eye, tears, single instillation 0.6% suspension, healthy volunteers, FAS
[6] = both sexes, human, tear fluid, topical, 37 μL of 0.6% suspension per eye, tears, single instillation 0.6% suspension, healthy volunteers, PP
[7] = tears, single instillation 0.6% suspension, healthy volunteers, FAS

Molecule `N[C@@H]1CCCCN(c2c(F)cc3c(=O)c(C(=O)O)cn(C4CC4)c3c2Cl)C1` [Besifloxacin, (R)-(+)-(3-amino-2,3,4,5,6,7-hexahydro-1H-azepin-1-yl)-8-chloro-1-cyclopropyl-6-fluoro-1,4,-dihydro-4-oxo-3-quinolinecarboxylic acid] has an MIC ([1]; S. aureus Wild type) of 0.03 µg/mL (≈ 0.0762 µM), an MIC ([1]; S. aureus parC S80F (or E84K)) of 0.06 µg/mL (≈ 0.152 µM) and an MIC ([1]; S. aureus parC S80F + gyrA S84L) of 0.5 µg/mL. For the same molecule, the “MPC (Mutant prevention concentration)” value (E. coli; 1st step) was 4 µg/mL, the “MSW (Mutant Selection Window)” value (E. coli; 1st step) was 0.12 to 2 µg/mL and the “Mutation rate at 4 × MIC” value (E. coli; 1st step) was 3.8 × 10^−8. For the same molecule, the “MPC (Mutant prevention concentration)” value (E. coli; 2nd step) was 16 µg/mL, the “MSW (Mutant Selection Window)” value (E. coli; 2nd step) was 2 to 8 µg/mL and the “Mutation rate at 4 × MIC” value (E. coli; 2nd step) was 6 × 10^−9. For the same molecule, the MIC (E. coli; 1st step) was 0.12 µg/mL (≈ 0.305 µM), the MIC (E. coli; 2nd step) was 2 µg/mL (≈ 5.08 µM) and the “MPC (Mutant prevention concentration)” value (S. aureus; 1st step) was 0.12 µg/mL. The “MSW (Mutant Selection Window)” value (S. aureus; 1st step) was 0.03 to 0.06 µg/mL, the “Mutation rate at 4 × MIC” value (S. aureus; 1st step) was 3.3 × 10^−10 and the “MPC (Mutant prevention concentration)” value (S. aureus; 2nd step) was 0.25 µg/mL. The “MSW (Mutant Selection Window)” value (S. aureus; [4]) was “NMO”, the “Mutation rate at 4 × MIC” value (S. aureus; [4]) was “NMO” and the MIC (S. aureus; 1st step) was 0.03 µg/mL (≈ 0.0762 µM). The MIC (S. aureus; 2nd step) was 0.25 µg/mL (≈ 0.635 µM), the “frequency of drug-resistant (single, 1st step) mutants” value (S. aureus; in vitro) was < 1 per 10^10 cells and the “MPC (Mutant prevention concentration)” value (S. pneumoniae; 1st step) was 0.5 µg/mL. The “MSW (Mutant Selection Window)” value (S. pneumoniae; 1st step) was 0.12 to 0.25 µg/mL, the “Mutation rate at 4 × MIC” value (S. pneumoniae; 1st step) was <7 × 10^−10 and the “MPC (Mutant prevention concentration)” value (S. pneumoniae; 2nd step) was 2 to 4 µg/mL. The “MSW (Mutant Selection Window)” value (S. pneumoniae; 2nd step) was 0.5 to 2 µg/mL, the “Mutation rate at 4 × MIC” value (S. pneumoniae; 2nd step) was 2.4 × 10^−8 and the MIC (S. pneumoniae; 1st step) was 0.12 µg/mL (≈ 0.305 µM). For the same molecule, the MIC (S. pneumoniae; 2nd step) was 0.5 µg/mL (≈ 1.27 µM), the “frequency of drug-resistant (single, 1st step) mutants” value (S. pneumoniae; in vitro) was < 1 per 10^10 cells and the concentration at 24 h ([2]; both sexes, human, tear fluid, topical, 37 μL of 0.6% suspension per eye, 0.6% suspension, human tears, read-out: mean concentration in tears at 24 hours (C24h)) was 1600 ± 2280 ng/g. For the same molecule, the concentration at 24 h ([2]; both sexes, human, tear fluid, topical, 37 μL of 0.6% suspension per eye, after a single dose of 0.6% suspension, humans, read-out: concentration in tears sustained for at least 24 hours) was ≥ 1600 ng/g, the Cmax [2, 5] was 610000 ± 540000 ng/g and the Tmax [2, 5] was 0.17 h. For the same molecule, the half-life [2, 5] was 3.4 h, the Cmax [2, 6] was 811000 ng/g and the half-life [2, 6] was 3.51 h. For the same molecule, the “time of mean maximum concentration in tears after instillation” value ([2]; single instillation, healthy volunteers) was ≤ 10 min, the AUC24 [2, 7] was 1232 µg·h/g and the t1/2 [2, 7] was 3.43 h. For the same molecule, the AUC24 ([2]; tears, single instillation 0.6% suspension, healthy volunteers, PP) was 1523 µg·h/g and the non-clinical ocular tolerance [3] was “no adverse effects observed”.

— patent US8415342B2, “Besifloxacin ophthalmic composition for the treatment or control of infection” (Bausch & Lomb Incorporated, priority 2008, dated 2013)
